Results reported in patent publication US20180327461A1, “COMPOSITIONS AND METHODS FOR CONTROL OF VECTOR-BORNE DISEASE” (STC.UNM, priority 2015, published 2018).

Columns and labels:
[1] = test system: P. agglomerans; assay type: cell-based, Pantoea agglomerans
[2] = test system: X. fastidiosa strain Temecula; assay type: cell-based, Xylella fastidiosa

Molecule | concentration killing P. agglomerans relative to concentration killing X. fastidiosa [1] | concentration that killed P. agglomerans [1] [µM] | concentration that killed X. fastidiosa [2] [µM] | toxicity to X. fastidiosa compared with P. agglomerans [2]
CC[C@H](C)[C@H](NC(=O)CN)C(=O)NCC(=O)N[C@@H](C)C(=O)N[C@H](C(=O)N[C@@H](CC(C)C)C(=O)N[C@@H](CCCCN)C(=O)N[C@H](C(=O)N[C@@H](CC(C)C)C(=O)N[C@H](C(=O)N[C@H](C(=O)NCC(=O)N[C@@H](CC(C)C)C(=O)N1CCC[C@H]1C(=O)N[C@@H](C)C(=O)N[C@@H](CC(C)C)C(=O)N[C@H](C(=O)N[C@@H](CO)C(=O)N[C@@H](Cc1c[nH]c2ccccc12)C(=O)N[C@H](C(=O)N[C@@H](CCCCN)C(=O)N[C@@H](CCCNC(=N)N)C(=O)N[C@@H](CCCCN)C(=O)N[C@@H](CCCNC(=N)N)C(=O)N[C@@H](CCC(N)=O)C(=O)N[C@@H](CCC(N)=O)C(N)=O)[C@@H](C)CC)[C@@H](C)CC)[C@@H](C)O)[C@@H](C)O)C(C)C)C(C)C [melittin, Melittin] | five times higher | 25 | 5 | more toxic to X. fastidiosa than P. agglomerans
scorpine-like molecule [SLM] |  | > 75 | 25 | more toxic to X. fastidiosa than P. agglomerans
